Key:
Set-up in all cases: expressed in transfected cells; host or cells: HEK-293 (membranes)
human V2 receptor = human V2 receptor (Homo sapiens, UniProt P30518); assay: V2 binding assay (3H-AVP displacement, HEK-293 membranes); details: 1.0 μM compound; for V2@1.0, % Inh: 1 µM; for inhibition at 1 µM: read-out: V2@1.0, % Inh
Experimental: (§1) V1a, V1b or V2 Binding Assay
(§2) Receptor binding studies were performed using recombinant human V1a, V1b or V2 receptors. Cellular membranes were harvested from HEK-293 cells transfected to express either the V1a, V1b or V2 receptors. Compounds were evaluated for their ability to displace ^3H-arginine vasopressin (^3H-AVP; specific activity 40-87 Ci/mmol; NEN Life Sciences, Boston, Mass.). Compounds were solubilized in dimethylsulfoxide (DMSO) and diluted to working concentration of 10% DMSO with assay buffer (50 mM Tris, 5 mM MgCl2, 0.1% BSA, pH 7.5). Assay buffer was supplemented with several protease inhibitors (1 mM Pefabloc, 5 μg/ml aprotinin/leupeptin/pepstatin A, 50 μg/ml bacitracin; Sigma Chemical, St. Louis, Mo.). Non-specific binding was determined using 1.25 μM arginine vasopressin (AVP; Peninsula Labs, Belmont, Calif.). Assay reagents and test compounds were added to 96-well round bottom polypropylene plates (145 μl buffer, 5 μl compound in 10% DMSO, 25 μl buffer containing 10,000 cpm tracer, 25 μl cell membrane). After incubation for 1 hour at room temperature, the well contents were aspirated across a Unifilter GF/C plate (Packard Instrument, Downers Grove, Ill.) which had been presoaked in 0.3% polyethyleneimine to prevent peptide sticking. The wells were washed repeatedly with cold saline containing 0.05% Tween 20. The plate was then dried and 25 μl Microscint-20 cocktail (Packard Instruments) added to each well. The plates were sealed and counted on a TopCount scintillation counter (Packard Instruments) using quench correction.

human V1b receptor = biological target: T1, human V1b receptor (Homo sapiens, UniProt P47901); assay: V1b binding assay (3H-AVP displacement, HEK-293 membranes); details: for inhibition at 1 µM: 1.0 μM compound, read-out: V1b@1.0, % Inh
T1 sequence (P47901 1-424): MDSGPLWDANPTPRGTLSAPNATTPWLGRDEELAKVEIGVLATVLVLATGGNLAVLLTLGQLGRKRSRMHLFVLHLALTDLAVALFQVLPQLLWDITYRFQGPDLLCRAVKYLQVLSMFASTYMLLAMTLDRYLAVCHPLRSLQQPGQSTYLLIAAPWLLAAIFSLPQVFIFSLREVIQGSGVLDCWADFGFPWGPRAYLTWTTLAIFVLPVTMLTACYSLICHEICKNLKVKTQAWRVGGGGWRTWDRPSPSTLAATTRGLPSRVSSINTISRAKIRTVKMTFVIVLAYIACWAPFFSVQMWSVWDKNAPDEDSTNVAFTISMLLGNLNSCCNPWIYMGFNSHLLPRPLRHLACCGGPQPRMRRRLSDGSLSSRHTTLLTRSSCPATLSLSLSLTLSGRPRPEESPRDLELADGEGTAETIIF
Experimental: as §1, §2

human V1a receptor = human V1a receptor (Homo sapiens, UniProt P37288); assay: V1a binding assay (3H-AVP displacement, HEK-293 membranes); details: for inhibition at 1 µM: 1.0 μM compound, read-out: V1a@1.0, % Inh
human V1a receptor, sequence (P37288 whole entry): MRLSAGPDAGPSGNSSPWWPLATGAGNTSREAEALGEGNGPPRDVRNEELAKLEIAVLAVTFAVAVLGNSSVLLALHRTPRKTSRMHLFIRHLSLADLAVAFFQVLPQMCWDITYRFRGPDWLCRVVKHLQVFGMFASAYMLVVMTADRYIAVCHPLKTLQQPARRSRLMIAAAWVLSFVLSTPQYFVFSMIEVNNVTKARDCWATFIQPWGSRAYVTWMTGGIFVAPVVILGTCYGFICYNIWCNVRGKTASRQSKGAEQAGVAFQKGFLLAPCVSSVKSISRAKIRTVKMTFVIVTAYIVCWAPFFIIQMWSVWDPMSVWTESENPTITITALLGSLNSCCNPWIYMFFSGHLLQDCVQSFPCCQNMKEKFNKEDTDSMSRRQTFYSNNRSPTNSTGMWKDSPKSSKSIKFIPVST
Experimental: as §1, §2

human V2 receptor, sequence (P30518 whole entry): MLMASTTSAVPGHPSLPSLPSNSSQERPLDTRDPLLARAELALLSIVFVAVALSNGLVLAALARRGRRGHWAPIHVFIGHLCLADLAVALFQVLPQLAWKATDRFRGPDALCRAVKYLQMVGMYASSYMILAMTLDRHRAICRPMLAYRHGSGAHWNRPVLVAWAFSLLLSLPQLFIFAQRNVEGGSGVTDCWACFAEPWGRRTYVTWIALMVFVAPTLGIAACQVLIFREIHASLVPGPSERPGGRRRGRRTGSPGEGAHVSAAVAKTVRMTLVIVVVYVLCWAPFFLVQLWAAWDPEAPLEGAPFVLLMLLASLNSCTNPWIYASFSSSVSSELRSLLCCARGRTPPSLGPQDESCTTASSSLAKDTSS

SMILES | V2@1.0, % Inh (human V2 receptor) [%] | inhibition at 1 µM (human V1b receptor) [%] | IC50 (human V1a receptor) [nM] | inhibition at 1 µM (human V2 receptor) [%] | inhibition at 1 µM (human V1a receptor) [%] | IC50 (human V1b receptor) [nM] | inhibition at 0.5 µM (human V1a receptor; 0.5 μM compound, read-out: V1a % Inh @0.5) [%]
O=c1n(CCCN2CCCCC2)c2ccccc2n1C1CCN(C(=S)NCc2ccccc2-c2ccccc2)CC1 [Compound 127] | 0 | 45 | 22 | – | – | – | –
CCCN(CCC)CCCn1c(=O)n(C2CCN(C(=O)NC(c3ccccc3)c3ccccc3)CC2)c2ccccc21 [Compound 80, 1-[(N1-piperidinocarbonylbiphenylmethylamino)-4-yl]-3-(3-N,N-dipropylaminopropyl)-1,3-dihydrobenzimidazol-2-one] | – | 38 | 170 | 11 | – | – | –
O=c1n(CCCN2CCCCC2)c2cc(C(F)(F)F)ccc2n1C1CCN(C(=S)NC(c2ccccc2)c2ccccc2)CC1 [Compound 121] | – | 39 | 330 | 3 | – | – | –
O=c1n(CCCN2CCCCC2)c2ccccc2n1C1CCN(C(=S)NC2c3ccccc3-c3ccccc32)CC1 [Compound 131, 1-[(N1-piperidinocarbothioylfluorenylamino)-4-yl]-3-(3-N-piperidinylpropyl)-1,3-dihydrobenzimidazol-2-one] | – | 62 | 48 | 0 | – | – | –
CC(CN1CCCCC1)Cn1c(=O)n(C2CCN(C(=O)NC(c3ccccc3)c3ccccc3)CC2)c2ccccc21 (centres unmarked) [Compound 147] | – | 27 | 440 | 1 | – | – | –
CCCC1CCN(CCCn2c(=O)n(C3CCN(C(=S)NC(c4ccccc4)c4ccccc4)CC3)c3ccccc32)CC1 [Compound 122, 1-[(N1-piperidinocarbothioylbiphenylmethylamino)-4-yl]-3-(4-propylpiperidin-1-yl-propyl)-1,3-dihydrobenzimidazol-2-one] | – | 70 | 52 | 0 | – | 250 | –
O=c1n(CCCC2CCCCC2)c2ccccc2n1C1CCN(C(=S)NC(c2ccccc2)c2ccccc2)CC1 [Compound 134, 1-[(N1-Piperidinocarbothioyldiphenylmethylamino)-4-yl]-3-(3-cyclohexylpropyl)-1,3-dihydro-benzimidazol-2-one] | – | 37 | 450 | 0 | – | – | –
CCCNC(=S)N1CCC(n2c(=O)n(CCCN3CCCCC3)c3ccccc32)CC1 [Compound 128, 1-[(N1-piperidinocarbothioylpropylamino)-4-yl]-3-(3-N-piperidinylpropyl)-1,3-dihydrobenzimidazol-2-one] | – | 31 | – | 0 | 12 | – | –
CC(CN1CCCCC1)Cn1c(=O)n(C2CCN(C(=S)NC(c3ccccc3)c3ccccc3)CC2)c2ccccc21 (centres unmarked) [Compound 146] | – | 33 | – | 0 | 85 | – | 15
CC(CN1CCCC1)Cn1c(=O)n(C2CCN(C(=S)NC(c3ccccc3)c3ccccc3)CC2)c2ccccc21 (centres unmarked) [Compound 148] | – | 40 | 53 | 1 | – | – | –
CC(C)c1ccccc1NC(=O)N1CCC(n2c(=O)n(CCCN3CCCCC3)c3ccccc32)CC1 [Compound 138] | – | 21 | – | 0 | 58 | – | –
O=c1n(CCCNCC2CCCCC2)c2ccccc2n1C1CCN(C(=S)NC(c2ccccc2)c2ccccc2)CC1 [Compound 88, 1-[(N1-piperidinocarbothioylbiphenylmethylamino)-4-yl]-3-(3-cyclohexylmethylaminopropyl)-1,3-dihydrobenzimidazol-2-one] | – | – | 36 | 3 | – | 1000 | –
COc1cccc(CNC(=S)N2CCC(n3c(=O)n(CCCN4CCCC4)c4ccccc43)CC2)c1OC [Compound 123, 1-[(N1-Piperidinocarbothioyl-(2,3-dimethoxybenzyl)amino)-4-yl]-3-(3-pyrrolidinylpropyl)-1,3-dihydrobenzimidazol-2-one] | – | 31 | 430 | 2 | – | – | –

Next, values leading:

V2@1.0, % Inh (human V2 receptor) [%] | inhibition at 1 µM (human V1b receptor) [%] | IC50 (human V1a receptor) [nM] | inhibition at 1 µM (human V2 receptor) [%] | inhibition at 1 µM (human V1a receptor) [%] | IC50 (human V1b receptor) [nM] | inhibition at 0.5 µM (human V1a receptor; 0.5 μM compound, read-out: V1a % Inh @0.5) [%] | SMILES
– | 26 | 117 | 4 | – | – | – | O=C(Nc1ccccc1-c1ccccc1)N1CCC(n2c(=O)n(CCCN3CCCCC3)c3ccccc32)CC1 [Compound 162]
– | 16 | – | 0 | 38 | – | – | O=C(Cc1ccc(N2CCCC2)cc1)n1c(=O)n(C2CCN(C(=S)NC(c3ccccc3)c3ccccc3)CC2)c2ccccc21 [Compound 150]
– | 38 | 230 | 2 | – | – | – | O=C(NC1c2ccccc2-c2ccccc21)N1CCC(n2c(=O)n(CCCN3CCCCC3)c3ccccc32)CC1 [Compound 152]
– | 16 | – | 19 | 5 | – | – | CSC(=O)NC(=N)N1CCC(n2c(=O)n(CCCN3CCCCC3)c3ccccc32)CC1 [Compound 166]
– | – | 80 | 6 | – | 680 | – | O=c1n(CCCN2CCC(N3CCCCC3)CC2)c2ccccc2n1C1CCN(C(=S)NC(c2ccccc2)c2ccccc2)CC1 [Compound 170]
4 | – | 12 | – | – | 1720 | – | O=c1n(CCCN2CCCCC2)c2ccccc2n1C1CCN(C(=S)NCc2ccccc2-c2ccccc2)CC1 [Compound 169]
– | 34 | 420 | 0 | – | – | – | O=c1n(CCCN2CCCCC2)c2ccccc2n1C1CCN(C(=S)NCc2ccc(Cl)c(Cl)c2)CC1 [Compound 174]
– | 33 | – | 2 | 65 | – | – | Cc1ccc2c(c1)n(CCCN1CCCCC1)c(=O)n2C1CCN(C(=O)NC(c2ccccc2)c2ccccc2)CC1 [Compound 171]
– | 0 | – | 6 | 5 | – | – | O=C1OCCC1NC(=S)N1CCC(n2c(=O)n(CCCN3CCCCC3)c3ccccc32)CC1 (centres unmarked) [Compound 157]
– | 10 | – | 5 | 28 | – | – | O=c1n(CCCN2CCCCC2)c2ccccc2n1C1CCN(C(=S)Nc2ccc3c(c2)CCC3)CC1 [Compound 155]
– | 40 | 108 | 2 | – | – | – | O=c1n(CCCN2CCCCC2)c2ccccc2n1C1CCN(C(=S)Nc2ccccc2-c2ccccc2)CC1 [Compound 161]
– | 22 | 450 | 3 | – | – | – | O=c1n(CCCN2CCCCC2)c2ccccc2n1C1CCN(C(=S)Nc2ccc3c(c2)OCO3)CC1 [Compound 156]
– | 1 | – | 8 | 12 | – | – | O=c1n(Cc2ccc(-c3csnn3)cc2)c2ccccc2n1C1CCN(C(=S)NC(c2ccccc2)c2ccccc2)CC1 [Compound 167]
